In brackets after ≈: the same amount, converted by molar mass. Like-named read-outs stand apart in the source and are kept apart here.

The test system of test [1] is S. aureus (ATCC 14775). The test is described as follows: Minimum inhibitory concentration, S. aureus. The class given is cell-based. The procedure: (§1) Antibacterial minimum inhibitory concentrations (MICs) were obtained from three independent experiments using broth microdilution methods in 96-well plates according to Clinical and Laboratory Standards Institute guidelines. Cells were culture from singles colonies in MHIIB medium for 24 h at 37° C. in agitation (200 RPM). The cultures were then diluted using the same media to reach an OD600 of 0.1. Then, 50 μL of the diluted cultures were added to the plates holding 50 μL of serially diluted compounds in MHIIB. The plates were incubated at 37° C. for 20 h. The starting inoculum was fixated to 10^5 colony-forming units per ml.

Test [2] deals with T1, E. coli DNA gyrase (Escherichia coli, UniProt P0AES4+P0AES6). In words: E. coli DNA gyrase inhibition (agarose gel-based and/or SDFQ-based, not specified per value). The class given is biochemical.
T1 sequence (P0AES4 whole entry, one chain of several): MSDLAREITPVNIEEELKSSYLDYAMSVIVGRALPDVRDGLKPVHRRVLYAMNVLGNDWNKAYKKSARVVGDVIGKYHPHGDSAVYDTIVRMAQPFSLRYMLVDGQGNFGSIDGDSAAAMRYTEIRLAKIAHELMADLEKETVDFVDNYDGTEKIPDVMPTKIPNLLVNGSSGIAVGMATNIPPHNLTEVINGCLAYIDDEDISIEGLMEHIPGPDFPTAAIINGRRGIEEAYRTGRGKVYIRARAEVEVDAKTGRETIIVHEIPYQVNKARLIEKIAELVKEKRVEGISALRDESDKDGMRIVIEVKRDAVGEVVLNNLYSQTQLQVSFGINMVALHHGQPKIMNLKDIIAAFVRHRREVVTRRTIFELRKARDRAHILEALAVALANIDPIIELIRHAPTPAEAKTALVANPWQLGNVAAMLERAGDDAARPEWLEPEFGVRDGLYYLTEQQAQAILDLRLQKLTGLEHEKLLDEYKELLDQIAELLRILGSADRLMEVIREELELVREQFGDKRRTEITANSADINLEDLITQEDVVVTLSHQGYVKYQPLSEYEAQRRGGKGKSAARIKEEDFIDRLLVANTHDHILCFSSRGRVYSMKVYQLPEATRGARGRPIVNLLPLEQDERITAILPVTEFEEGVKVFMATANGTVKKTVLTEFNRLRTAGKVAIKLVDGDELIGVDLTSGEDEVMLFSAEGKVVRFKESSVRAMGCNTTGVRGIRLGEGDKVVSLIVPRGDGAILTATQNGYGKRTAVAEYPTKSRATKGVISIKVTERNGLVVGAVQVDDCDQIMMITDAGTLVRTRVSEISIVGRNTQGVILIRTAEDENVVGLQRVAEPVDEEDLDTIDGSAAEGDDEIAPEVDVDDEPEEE
The subject of test [3] is MRSA (ATCC BAA44). The test is described as follows: microbe, parasite or virus in culture. The class given is cell-based, S. aureus. The procedure:
as §1

For test [4], the system named is Mtb. In words: Mtb inhibition (antibacterial activity). The class given is cell-based, Mycobacterium tuberculosis. The arrangement: % Mtb inhibition: concentration or dose not given beside the values. The note with it: for % Mtb inhibition: Table 5.
Test [5] concerns B. subtilis (ATCC 6633). The test is described as follows: Minimum inhibitory concentration, B. subtilis. The note with it: Bacillus subtilis, ATCC6633; Tables 3a-3c. It counts as cell-based. The procedure:
as §1

In test [6] the test system is E. coli imp. In words: microbe, parasite or virus in culture. The settings on record: Escherichia coli. It counts as cell-based. The procedure:
as §1

The target of test [7] is T1, E. coli DNA gyrase. The test is described as follows: Agarose gel-based DNA gyrase inhibition assays. It counts as biochemical. The procedure: 100 ng of DNA gyrase was used to supercoil the rx pAB1 in the presence of different concentrations of a gyrase inhibitor. […] Samples were analyzed by electrophoresis in 1% w/v agarose gels followed by ethidium bromide staining and photographed under UV light.

The subject of test [8] is E. coli (ATCC 25922). In words: Minimum inhibitory concentration, E. coli. The class given is cell-based. The note with it: Escherichia coli, ATCC25922, read-out: Minimum Inhibitory Concentration E. coli. The procedure:
as §1

Test [9] has as its system DNA. In words: DNA binding, intercalation and photo-induced crosslinking.
Setting [10] is: Table 2 values, read-out: IC50 ( ≤15 μM) IC50.
The mark [11] stands for this setting: read-out: Minimum Inhibitory Concentration E. coli imp.

By IC50 is commonly meant the concentration that inhibits the measured activity by half. Consider `Cc1cc(C)c2c(c1)C(=NNc1ccc(C(=O)O)cc1)C(O)=N2` [Compound 9, 4-[2-(5,7-Dimethyl-2-oxoindol-3-yl)hydrazinyl]benzoic acid], for which, in test [1], the “growth inhibition of S. aureus” value was “strongly inhibited the growth”. In addition, the IC50 in test [2] (setting [10]) is 1.69 µM. The “growth inhibition of MRSA” value in test [3] is “strongly inhibited the growth”.
`CSc1nc(SCC(=O)O)c2sc3nc(-c4ccccc4)c4c(c3c2n1)CCC4` [Compound 19]: the IC50 in test [2] (setting [10]) came to 3.55 µM. Besides, the “activity against Mtb” value in test [4] is reported as “Mtb active hits”.
For the molecule `Cc1c(CCC(=O)O)c(=O)oc2cc3occ(-c4ccc(Cl)cc4)c3cc12` [Compound 25], in test [2] (setting [10]), the IC50 came to 10.6 µM. The figures for the MIC in test [5] and in test [6] (setting [11]) were 25 µM (≈ 9.57 µg/mL) and 25 µM, respectively. Also, the “% Mtb inhibition” value in test [4] came out at 0.8%.
For `O=C(O)CCN1C(=O)/C(=C/c2ccc(-c3nc4ccccc4s3)o2)SC1=S` [Compound 27], in test [2] (setting [10]), the IC50 was found to be 1.74 µM.
Still for that read-out and setting: the result for `O=C(O)CCCCCN1C(=O)/C(=C\c2ccc(-c3ccc(Cl)cc3)o2)SC1=S` [Compound 36] reads 7.42 µM; that for `CC(C)(CS(=O)(=O)[O-])NC(=O)CC[N+](C)(C)CCO` [Compound 42], 2.18 µM.
For the molecule `O=C(O)c1cccc(-c2ccc(/C=c3/sc4nc5ccccc5n4c3=O)o2)c1` [Compound 47], in test [2] (setting [10]), the IC50 came to 1.87 µM. In addition, the “activity against Mtb” value in test [4] is on record as “Mtb active hits”.
Consider `COc1cc2ccccc2cc1C(=O)NC(=S)Nc1ccc(C(=O)O)cc1` [Compound 72], for which the half-inhibitory concentration (IC50) in test [2] (setting [10]) amounted to 12.4 µM.
On the same count and under the same terms, the result for `Cc1cc(C)c2sc(NC(=O)C3CC3)nc2c1` [Compound 73] reads 7.86 µM; that for `Cc1c2cc(O)c(=O)cc-2oc2cc(O)c(O)cc12` [Compound 75], 5.28 µM; that for `CNC(=O)[C@H]1O[C@@H](n2cnc3c(NCc4cccc(I)c4)nc(Cl)nc32)[C@H](O)[C@@H]1O` [Compound 76], 2.53 µM.
As for `O=C(Nc1cccc(C2=NCCN2)c1)Nc1cccc(C2=NCCN2)c1` [Compound 79], in [6] (setting [11]), the MIC was found to be 50 µM. Moreover, the “inhibition of E. coli DNA gyrase activities” value in [7] (200 μM of compounds) was “completely inhibited”.
As to `Cc1cccc2c1N=C(O)C2=NNc1ccc(S(C)(=O)=O)cc1` [Compound 109], the “inhibition of E. coli DNA gyrase activities” value in test [7] (50 μM of compounds) is reported as “completely inhibited”.
On to `O=C1Nc2ccc(Br)cc2C1=NNc1ccc(C(=O)O)cc1` [Compound 111], for which the MIC in [5] is 100 µM (≈ 36 µg/mL). Besides, in test [7] (50 μM of compounds), the “inhibition of E. coli DNA gyrase activities” value is “completely inhibited”.
For `Cc1c(CC(=O)O)c(=O)oc2c(C)c3occ(-c4ccc(Br)cc4)c3cc12` [Compound 117], the MIC in [5], in test [8] and in [6] (setting [11]) was > 200 µM throughout. In addition, in test [4], the “% Mtb inhibition” value was found to be 24.7%.
Turning to `Cc1c(CCC(=O)O)c(=O)oc2c(C)c3occ(-c4ccccc4)c3cc12` [Compound 121], the MIC in test [8] is > 200 µM; in test [6] (setting [11]) it was 100 µM. Moreover, the “inhibition of E. coli DNA gyrase activities” value in [7] (50 μM of compounds) is reported as “completely inhibited”. In addition, in test [4], the “% Mtb inhibition” value came to 36.7%.
Take `Cc1c(CCC(=O)O)c(=O)oc2c(C)c3occ(-c4ccc(F)cc4)c3cc12` [Compound 123]: the MIC in test [8] and in test [6] (setting [11]) was > 200 µM each time. In addition, the “% Mtb inhibition” value in [4] is listed as 31.8%.
On to `Cc1c(CCC(=O)O)c(=O)oc2c(C)c3occ(-c4ccc(N5CCCC5)cc4)c3cc12` [Compound 125], for which the “growth inhibition of S. aureus” value in test [1] was “did not inhibit the growth”. Also, in test [3], the “growth inhibition of MRSA” value is reported as “did not inhibit the growth”. For the same molecule, the “% Mtb inhibition” value in test [4] is on record as 10.2%.
Regarding `O=C(O)c1ccc(/N=N/C2C(O)=Nc3ccc(F)cc32)cc1` (centres unmarked) [Compound 127], the “activity against Mtb” value in test [4] is reported as “Mtb active hits”.
Still for that read-out and setting: the result for `Cc1cccc2c1N=C(O)C2/N=N/c1ccc(C(=O)O)cc1` (centres unmarked) [Compound 128] reads “Mtb active hits”.
With `Cc1cc(NN=Cc2ccc([N+](=O)[O-])o2)nc2ccccc12` [Compound 134], the MIC was 200 µM (≈ 59.3 µg/mL) in [1] (Staphylococcus aureus, ATCC14775, Tables 3a-3c, read-out: Minimum Inhibitory Concentration S. aureus) and 200 µM (≈ 59.3 µg/mL) in test [3] (Staphylococcus aureus, read-out: Minimum Inhibitory Concentration S. aureus MRSA).
As to `O=C(O)C(Cc1ccccc1)N1C(=O)/C(=C\C=C\c2ccco2)SC1=S` (centres unmarked) [Compound 157], in test [2] (setting [10]), the IC50 turned out to be 10 µM. The MIC in [6] (setting [11]) came out at 100 µM.
Consider `O=[N+]([O-])c1cc(/C=N/Nc2nc3ccccc3[nH]2)c(O)cc1O` [Compound 159], for which, in test [2] (setting [10]), the IC50 came out at 6.25 µM.
Regarding `O=C(/C=C/c1ccco1)Nc1cccc2cccnc12` [Compound 164], the MIC in test [6] (setting [11]) stood at 100 µM.
With `N#C/C(=C\c1coc2ccc(O)cc2c1=O)C(=O)/N=c1\[nH]c2ccccc2s1` [Compound 165], the IC50 in test [2] (setting [10]) is 6.25 µM.
Regarding `O=C(O)C(c1ccccc1)N1C(=O)/C(=C\c2ccc(-c3cccc(Cl)c3)o2)SC1=S` (centres unmarked) [Compound 176], the IC50 in test [2] (setting [10]) was found to be 2 µM.
Regarding `COc1cc(/C=N/N=c2\[nH]c3ccccc3s2)cc([N+](=O)[O-])c1O` [Compound 178], the IC50 in test [2] (setting [10]) was found to be 1.56 µM. In addition, in [4], the “activity against Mtb” value was “Mtb active hits”.
Regarding `O=C(NN1C(=O)/C(=C\C=C\c2ccco2)SC1=S)c1ccccc1O` [Compound 180], the MIC in [6] (setting [11]) was determined as 100 µM.
With `O=C1/C(=C\c2ccc(O)c([N+](=O)[O-])c2)SC(=S)N1Cc1ccccc1` [Compound 192], the IC50 in [2] (setting [10]) worked out at 8 µM.
Consider `O=C1NC(=S)SC1=Cc1cc(Cl)cc(Cl)c1O` [Compound 207], for which, in test [2], the IC50 lay within 50 to 200 µM. Besides, the “inhibition of E. coli DNA gyrase activities” value in test [7] (50 μM of compounds) is listed as “inhibited”; in test [7] (200 μM of compounds), “completely inhibited”.
For `NN=C1c2ccccc2C(=O)C1C(=O)C(c1ccccc1)c1ccccc1` (centres unmarked) [Compound 211] the same measures were 50 to 200 µM, “inhibited” and “completely inhibited”.
In the case of `Brc1ccc2c(c1)-c1ccccc1C1=NCCN12` [Compound 217], the DNA intercalator entry in test [9] is recorded as “DNA intercalators”.
Turning to `C[n+]1c(-c2ccc(C=NNC(=O)c3ccc(C(=O)NN=Cc4ccc(-c5cn6ccccc6[n+]5C)cc4)cc3)cc2)cn2ccccc21` [Compound 229], the concentration for half-maximal inhibition (IC50) in [2] lay in the range of 25 to 50 µM.
In the case of `CN(C)c1ccc(/C=c2\c3ccccc3n3c2cc(-c2ccccc2)[n+]3C)cc1` [Compound 236], the DNA intercalator result in [9] is recorded as “DNA intercalator”.
Turning to `COc1ccc2c(c1)/c(=C\c1ccc(N(C)C)cc1)c1cc(-c3ccccc3)[n+](C)n12.O=S(=O)([O-])C(F)(F)F` [Compound 237], the DNA intercalator entry in test [9] is “DNA intercalators”.
`CCOC(=O)c1cc2c(=Cc3ccc(N(C)C)cc3)c3ccccc3n2[n+]1C.O=S(=O)([O-])C(F)(F)F` [Compound 239]: in test [9], the DNA intercalator result is on record as “DNA intercalators”.
Still for that read-out and setting: the result for `COc1cccc2nc3c(C(=O)NCCN(C)C)cccc3cc12.Cl` [Compound 240] reads “DNA intercalators”.
`CN(C)CCNC(=O)c1cccc2nc3cccc(F)c3nc12.Cl` [Compound 241]: the DNA intercalator result in test [9] was “DNA intercalators”.
The same measure, in the same setting: the value for `Nc1ccc2cc3ccc(N)cc3nc2c1` [Compound 246] was “DNA intercalators”; that for `Nc1c2ccccc2nc2ccccc12` [Compound 247] was “DNA intercalators”.
Still for that read-out and setting: the result for `CN1/C(=C/c2cc[n+](C)c3ccccc23)Sc2ccccc21.Cc1ccc(S(=O)(=O)[O-])cc1` [Compound 248] reads “DNA intercalators”; that for `CN(C)c1ccc2cc3ccc(N(C)C)cc3nc2c1` [Compound 249], “DNA intercalators”.
Take `O=C1OC2(c3ccccc31)c1cc(I)c(O)c(I)c1Oc1c2cc(I)c(O)c1I` [Compound 253, Erythrosin B]: the IC50 in test [2] (setting [10]) came out at 3.12 µM.
For `CCOc1ccc2nc3cc(N)ccc3c(N)c2c1` [Compound 257], the DNA intercalator result in test [9] is listed as “DNA intercalators”.
The same measure, in the same setting: the value for `CSC1SC2C(=O)N(C)C(C(C)C)C(=O)OCC(NC(=O)c3cnc4ccccc4n3)C(=O)NC(C)C(=O)N(C)C1C(=O)N(C)C(C(C)C)C(=O)OCC(NC(=O)c1cnc3ccccc3n1)C(=O)NC(C)C(=O)N2C` (centres unmarked) [Compound 258] was “DNA intercalators”.
As for `CN1C[C@H](CNC(=O)OCc2ccccc2)C[C@@H]2c3cccc4c3c(cn4C)C[C@H]21` [Metergoline, reference compound], the “inhibition of gyrase activities” value in test [7] (at 100 and 200 μM) is reported as “inhibits gyrase activities”.
As to `CCCCCCCCOC(=O)c1cc(O)c(O)c(O)c1` [Octyl gallate], the MIC in test [6] (read-out: MIC (μg/ml) E. coli imp) is 14.1 µg/mL.
Consider `O=c1ccc2cc3ccoc3cc2o1` [psoralen, reference compound], for which the “inhibition of E. coli DNA gyrase activities” value in test [2] is reported as “not a gyrase inhibitor”.
Regarding “mithramycin [Compound 225, reference compound]”, the “inhibition of E. coli DNA gyrase activities” value was “strongly inhibited” in test [2], “completely inhibited” in test [7] (50 μM of compounds) and “completely inhibited” in test [7] (200 μM of compounds).

The values are drawn from patent US12558366B2, “Bacterial DNA gyrase inhibitors and methods of use thereof” (THE FLORIDA INTERNATIONAL UNIVERSITY BOARD OF TRUSTEES, priority 2021, dated 2026).
